This note sets out measurements from US20260224463A1, “COMPOSITIONS COMPRISING HYDROPHILIC ACTIVE INGREDIENTS IN OIL” (Lubrizol Advanced Materials, Inc., priority 2023, published 2026).

A short description of series [1]: Visual inspection of physical appearance of the compositions. The settings on record: peptide 0.125 wt. % at the optimal ingredient concentrations, in words. The series is classed as physicochemical. As to the method:
The stability of the formulations was determined by visual inspection and by quantification of the amount of active ingredient by high performance liquid chromatography (HPLC).
Visual inspection: The results are classified as OK or KO according to the physical appearance. OK represents a transparent solution at t=0 h with small particles at the bottom after 24h. KO represents solutions completely separated into phases, turbid or with an unacceptable precipitate at the bottom.

Series [2] can be described thus: Log P of the peptides. The series is classed as physicochemical.

Take “H-FWMKRKRVP-NH2 [PEP-8, H-Phe-Trp-Met-Lys-Arg-Lys-Arg-Val-Pro-NH2]”: the “compatibility of the peptide with the composition” value (shortened to “compatibility of the peptide”) in series [1] is “good compatibility”. Further, the logP in series [2] was -3.38.

Take “Ac-EEMQRRAD-NH2 [PEP-2, Ac-Glu-Glu-Met-Gln-Arg-Arg-Ala-Asp-NH2]”: the “compatibility of the peptide” value in series [1] was “good compatibility”. Also, in series [2], the log partition coefficient (logP) was -5.84.

For `CC(C)C[C@H](NC(=O)[C@H](Cc1ccccc1)NC(=O)CNC(=O)[C@@H](C)NC(=O)[C@@H](N)Cc1ccc(O)cc1)C(=O)O` [PEP-9, H-Tyr-D-Ala-Gly-Phe-Leu-OH], in series [1], the “compatibility of the peptide” value is listed as “good compatibility”. In addition, the logP in series [2] is -1.02.
